Counter-ions that a name gives are not always drawn. Like-named read-outs stand apart in the source and are kept apart here.

This note sets out measurements from patent US11440913B2, “Aminoimidazopyridazines as kinase inhibitors” (BRISTOL-MYERS SQUIBB COMPANY, priority 2017, dated 2022).

For assay [1], the target named is His-GST-TVMV-hRIPK1(1-324) (Homo sapiens (Human), UniProt Q13546). Nature of the assay: RIPK1 HTRF Binding Assay. Conditions: HTRF binding, 1 h at rt; read-out: RIPK1 (IC50). In outline: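 HTRF probe-displacement binding: 1 nM His-GST-TVMV-hRIPK1(1-324) (baculovirus construct), 90.6 nM probe, 0.2 nM anti-GST-Tb in 20 mM HEPES, 10 mM MgCl2, 0.015% Brij-35, 4 mM DTT, 0.05 mg/mL BSA. Incubated 1 h at rt; FRET 520/495 nm ratio, inhibition relative to DMSO-only wells.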

Assay [2] deals with MLKL phosphorylation in HT29-L23 human colorectal adenocarcinoma cells. The experiment in a line: MLKL Phosphorylation High-Content Assay. It is filed as cell-based. Conditions: 6 h, necroptosis induced with TNFα, SMAC mimetic and Z-VAD, read-out: pMLKL (IC50). Put shortly:
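HT29-L23 cells pretreated 30 min at 37 °C with compound (6.25 to 0.106 μM final), then necroptosis induced with TNFα 35 ng/mL, SMAC mimetic 700 nM and Z-VAD 140 nM for 6 h. Fixed cells immunostained for MLKL pS358 and imaged; IC50 and Ymax from 4-parameter logistic fit.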

Sequence of His-GST-TVMV-hRIPK1(1-324) (Q13546 1-324): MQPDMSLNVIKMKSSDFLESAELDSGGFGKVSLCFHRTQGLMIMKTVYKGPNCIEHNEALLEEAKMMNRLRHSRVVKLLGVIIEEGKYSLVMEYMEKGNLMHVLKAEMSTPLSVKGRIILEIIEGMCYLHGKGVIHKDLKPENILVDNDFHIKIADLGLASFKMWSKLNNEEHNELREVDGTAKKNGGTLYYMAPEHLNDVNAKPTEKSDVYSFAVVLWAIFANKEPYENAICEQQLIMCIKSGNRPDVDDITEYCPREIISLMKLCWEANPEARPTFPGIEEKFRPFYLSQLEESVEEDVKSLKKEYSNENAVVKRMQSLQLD

In the case of `[2H]C([2H])([2H])[C@@H](NC(=O)c1cc(-c2ccc3nc(NC(C)=O)cn3n2)cnc1C)c1cc(OC(F)(F)F)ccc1F` [Example 199, 5-{2-acetamidoimidazo[1,2-b]pyridazin-6-yl}-N-[(1R)-1-[2-fluoro-5-(trifluoromethoxy)phenyl](2,2,2-deutero)ethyl]-2-methylpyridine-3-carboxamide], the values for the IC50 in assay [1] and in assay [2] (Homo sapiens) were 13 nM and 17 nM, respectively.

Take `[2H]C([2H])(NC(=O)c1cc(-c2ccc3nc(NC(C)=O)cn3n2)cnc1C)c1cc(C(F)(F)F)ccc1F` [Example 200, 5-{2-acetamidoimidazo[1,2-b]pyridazin-6-yl}-N-{[2-fluoro-5-(trifluoromethyl)phenyl] (deutero)methyl}-2-methylpyridine-3-carboxamide]: the concentration for half-maximal inhibition (IC50) (commonly the concentration that gives 50% inhibition) in assay [1] was 17 nM; in assay [2] (Homo sapiens) it was 34 nM.

As to `CC(=O)Nc1cn2nc(-c3cnc(C)c(C(=O)NCc4cc(F)cc(F)c4OC4CCOCC4)c3)ccc2n1` [Example 201, N-{[3,5-difluoro-2-(oxan-4-yloxy)phenyl]methyl}-5-{2-acetamidoimidazo[1,2-b]pyridazin-6-yl}-2-methylpyridine-3-carboxamide], the figures for the IC50 in assay [1] and in assay [2] (Homo sapiens) were 6 nM and 10 nM, respectively.

For `CC(=O)Nc1cn2nc(-c3cnc(C)c(C(=O)NC(C)c4ccccc4OC(F)(F)F)c3)ccc2n1` (centres unmarked) [Example 202, 5-{2-acetamidoimidazo[1,2-b]pyridazin-6-yl}-2-methyl-N-{1-[2-(trifluoromethoxy)phenyl]ethyl}pyridine-3-carboxamide], the IC50 in assay [1] came out at 32 nM; in assay [2], 34 nM.

As to `CC(=O)Nc1cn2nc(-c3cnc(C)c(C(=O)NC(C)c4ccccc4OC(F)(F)F)c3)ccc2n1` (centres unmarked) [Example 203, 5-{2-acetamidoimidazo[1,2-b]pyridazin-6-yl}-2-methyl-N-{1-[2-(trifluoromethoxy)phenyl]ethyl}pyridine-3-carboxamide], the IC50 in assay [1] was greater than 5000 nM; in assay [2] it was greater than 6250 nM.

Turning to `CC(=O)Nc1cn2nc(-c3cnc(C)c(C(=O)NC(C)c4cc(C(F)(F)F)ccc4F)c3)ccc2n1` (centres unmarked) [Example 204, 5-{2-acetamidoimidazo[1,2-b]pyridazin-6-yl}-N-{1-[2-fluoro-5-(trifluoromethyl)phenyl]ethyl}-2-methylpyridine-3-carboxamide], the IC50 in assay [1] worked out at 122 nM; in assay [2] (Homo sapiens) it was 83 nM.

For `CC(=O)Nc1cn2nc(-c3cnc(C)c(C(=O)NC(C)c4cc(C(F)(F)F)ccc4F)c3)ccc2n1` (centres unmarked) [Example 205, 5-{2-acetamidoimidazo[1,2-b]pyridazin-6-yl}-N-{1-[2-fluoro-5-(trifluoromethyl)phenyl]ethyl}-2-methylpyridine-3-carboxamide], the IC50 in assay [1] turned out to be 27 nM; in assay [2], 74 nM.

Turning to `CC(=O)Nc1cn2nc(-c3cnc(C)c(C(=O)NCc4cc(C(F)(F)F)ccc4F)c3)ccc2n1` [Example 206, 5-{2-acetamidoimidazo[1,2-b]pyridazin-6-yl}-N-{[2-fluoro-5-(trifluoromethyl)phenyl]methyl}-2-methylpyridine-3-carboxamide, TFA], the IC50 was 12 nM in assay [1] and 37 nM in assay [2] (Homo sapiens).

Take `CC(=O)Nc1cn2nc(-c3cnc(C)c(C(=O)NCc4cc(F)cc(OC(F)(F)F)c4)c3)ccc2n1` [Example 207, 5-{2-acetamidoimidazo[1,2-b]pyridazin-6-yl}-N-{[3-fluoro-5-(trifluoromethoxy)phenyl]methyl}-2-methylpyridine-3-carboxamide, TFA]: the IC50 in assay [1] is 29 nM; in assay [2] (Homo sapiens), 92 nM.

As for `[2H]C([2H])(NC(=O)c1cc(-c2ccc3nc(NC(C)=O)cn3n2)cnc1C)c1cc(OC(F)(F)F)ccc1F` [Example 208, 5-{2-acetamidoimidazo[1,2-b]pyridazin-6-yl}-N-{[2-fluoro-5-(trifluoromethoxy)phenyl] (deutero)methyl}-2-methylpyridine-3-carboxamide], the IC50 in assay [1] and in assay [2] (Homo sapiens) was 5 nM in each case.

Take `CC(=O)Nc1cn2nc(-c3cnc(C)c(C(=O)NCc4ccc(F)c(F)c4OCC4CC4)c3)ccc2n1` [Example 209, N-{[2-(cyclopropylmethoxy)-3,4-difluorophenyl]methyl}-5-{2-acetamidoimidazo [1,2-b]pyridazin-6-yl}-2-methylpyridine-3-carboxamide]: the IC50 amounted to 133 nM in assay [1] and 202 nM in assay [2] (Homo sapiens).

For the molecule `CC(=O)Nc1cn2nc(-c3cnc(C)c(C(=O)NCc4cc(F)cc(F)c4OCC4CCC4)c3)ccc2n1` [Example 210, N-{[2-(cyclobutylmethoxy)-3,5-difluorophenyl]methyl}-5-{2-acetamidoimidazo[1,2-b]pyridazin-6-yl}-2-methylpyridine-3-carboxamide, TFA], the IC50 in assay [1] came to 3 nM; in assay [2], 5 nM.

On to `CC(=O)Nc1cn2nc(-c3cnc(C)c(C(=O)NCC[C@@H](O)c4ccc(Cl)cc4)c3)ccc2n1` [Example 211, N-[(3R)-3-(4-chlorophenyl)-3-hydroxypropyl]-5-{2-acetamidoimidazo[1,2-b]pyridazin-6-yl}-2-methylpyridine-3-carboxamide], for which the figures for the IC50 in assay [1] and in assay [2] (Homo sapiens) were 62 nM and 137 nM, respectively.

On to `CC(=O)Nc1cn2nc(-c3cnc(C)c(C(=O)NCc4cccc(F)c4OCC4CC4)c3)ccc2n1` [Example 212, N-{[2-(cyclopropylmethoxy)-3-fluorophenyl]methyl}-5-{2-acetamidoimidazo [1,2-b]pyridazin-6-yl}-2-methylpyridine-3-carboxamide], for which the IC50 was determined as 8 nM in assay [1] and 4 nM in assay [2] (Homo sapiens).

As to `CC(=O)Nc1cn2nc(-c3cnc(C)c(C(=O)NCc4cc(OC(F)(F)F)ccc4F)c3)ccc2n1` [Example 213, 5-{2-acetamidoimidazo[1,2-b]pyridazin-6-yl}-N-{[2-fluoro-5-(trifluoromethoxy)phenyl]methyl}-2-methylpyridine-3-carboxamide], the half-inhibitory concentration (IC50) in assay [1] came to 7 nM; in assay [2] (Homo sapiens) it was 6 nM.

For `CC(=O)Nc1cn2nc(-c3cnc(C)c(C(=O)NCc4cc(F)cc(F)c4OCC4CC4)c3)ccc2n1` [Example 214, N-{[2-(cyclopropylmethoxy)-3,5-difluorophenyl]methyl}-5-{2-acetamidoimidazo[1,2-b]pyridazin-6-yl}-2-methylpyridine-3-carboxamide], the IC50 in assay [1] is 1 nM; in assay [2] (Homo sapiens), 16 nM.

`CC(=O)Nc1cn2nc(-c3cnc(C)c(C(=O)NCc4cc(OCC5CC5)ccc4F)c3)ccc2n1` [Example 215, N-{[5-(cyclopropylmethoxy)-2-fluorophenyl]methyl}-5-{2-acetamidoimidazo[1,2-b]pyridazin-6-yl}-2-methylpyridine-3-carboxamide]: the IC50 in assay [1] was 8 nM; in assay [2] (Homo sapiens) it was 22 nM.

Turning to `CC(=O)Nc1cn2nc(-c3cnc(C)c(C(=O)NCC[C@H](O)c4ccc(Cl)cc4)c3)ccc2n1` [Example 216, N-[(3S)-3-(4-chlorophenyl)-3-hydroxypropyl]-5-{2-acetamidoimidazo[1,2-b]pyridazin-6-yl}-2-methylpyridine-3-carboxamide], the IC50 worked out at 66 nM in assay [1] and 397 nM in assay [2] (Homo sapiens).

Take `CC(=O)Nc1cn2nc(-c3cnc(C)c(C(=O)NCc4cccnc4OCC4CCCC4)c3)ccc2n1` [Example 217, N-{[2-(cyclopentylmethoxy)pyridin-3-yl]methyl}-5-{2-acetamidoimidazo [1,2-b]pyridazin-6-yl}-2-methylpyridine-3-carboxamide]: the IC50 came to 54 nM in assay [1] and 205 nM in assay [2] (Homo sapiens).
